The compounds below were run against T1, human CRTH2 (Homo sapiens, UniProt Q9Y5Y4) (assay: Human CRTH2 binding assay (3H-PGD2 ligand binding, 293(124) cells)). Conditions: 3H-PGD2 binding to 293(124) cells stably expressing human CRTH2; room temperature, 2.5 h.
T1 construct: Full-length human CRTH2 cDNA was generated by polymerase chain reaction (PCR); expressed in transfected cells; host or cells: 293 cells stably transfected with pHLT124 (pCDNA3.1(+)), named 293(124)
T1 sequence (Q9Y5Y4 1-395): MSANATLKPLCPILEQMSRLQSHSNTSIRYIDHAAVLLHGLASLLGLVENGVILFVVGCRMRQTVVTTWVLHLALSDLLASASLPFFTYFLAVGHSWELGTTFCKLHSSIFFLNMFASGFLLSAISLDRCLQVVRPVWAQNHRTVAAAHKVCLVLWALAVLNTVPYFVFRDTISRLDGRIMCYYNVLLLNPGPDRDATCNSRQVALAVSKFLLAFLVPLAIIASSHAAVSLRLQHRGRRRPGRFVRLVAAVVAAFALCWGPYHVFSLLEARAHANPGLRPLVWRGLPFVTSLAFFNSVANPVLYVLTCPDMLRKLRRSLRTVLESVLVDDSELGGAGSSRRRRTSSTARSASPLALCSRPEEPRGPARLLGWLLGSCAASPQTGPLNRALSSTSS
Method: Full-length human CRTH2 cDNA was generated by polymerase chain reaction (PCR) using human genomic DNA as template and subsequently cloned into pCDNA3.1(+) (Invitrogen), generating a CRTH2 expression plasmid pHLT124. The plasmid was transfected into 293 cells, […], using LipofectAMINE™ reagents (Gibco/BRL). G418 ([…]) was added to the culture 48 h after transfection and cells were maintained under selection for 3 weeks to ensure that all surviving cells stably expressed CRTH2. These cells are labeled as 293(124) hereafter.
^3H-PGD2 binding assay was performed using 293(124) cells. In brief, cells were washed and suspended in RPMI containing 0.5% BSA and 20 mM HEPES. Each assay contained 25,000 cells, appropriate amount of test compound when necessary and a mixture of 1 nM ^3H-PGD2 (Anmersham Pharmacia Biotech) and 30 nM of unlabeled PGD2 (Cayman Chemicals) in […] final volume. The cell mixture was incubated at room temperature for 2.5 h with shaking and the cells were separated from free ^3H-PGD2 and transferred onto a filter plate using a cell harvester. Radioactivity bound to the cells was measured on a liquid scintillation counter. Nonspecific binding was determined in the presence of […] of unlabeled PGD2.
Compound `Cc1ccc(S(=O)(=O)Nc2cc(C(F)(F)F)ccc2Oc2ccc(CC(=O)O)cc2)cc1` [Example 1, {4-[2-(toluene-4-sulfonylamino)-4-trifluoromethyl-phenoxy]-phenyl}-acetic acid] has an IC50 of 1000 to 15000 nM.
Compound `O=C(O)Cc1ccc(Oc2ccc(C(F)(F)F)cc2NS(=O)(=O)c2cccc3ccccc23)cc1` [Example 2, {4-[2-(Naphthalene-1-sulfonylamino)-4-trifluoromethyl-phenoxy]-phenyl}-acetic acid] has an IC50 of 1000 to 15000 nM.
With `O=C(O)Cc1ccc(Oc2ccc(C(F)(F)F)cc2NC(=O)c2ccccc2)cc1` [Example 3, [4-(2-Benzoylamino-4-trifluoromethyl-phenoxy)-phenyl]-acetic acid] the IC50 was 1000 to 15000 nM.
For `CS(=O)(=O)Nc1cc(C(F)(F)F)ccc1Oc1ccc(CC(=O)O)cc1` [Example 4, [4-(2-Methanesulfonylamino-4-trifluoromethyl-phenoxy)-phenyl]-acetic acid], the IC50 was greater than 15000 nM.
With `O=C(O)Cc1cc(OCc2ccccc2)cc(C(F)(F)F)c1` [Example 5, (3-benzyloxy-5-trifluoromethyl-phenyl)-acetic acid] the IC50 was 1000 to 15000 nM.
`CCNC(=O)c1ccc(Oc2ccc(CCC(=O)O)cc2)c(NS(=O)(=O)c2ccccc2)c1` [Example 10, 3-[4-(2-Benzenesulfonylamino-4-ethylcarbamoyl-phenoxy)-phenyl]-propionic acid] gave an IC50 of less than 1000 nM.
Work on `CCNC(=O)c1ccc(Oc2ccc(CC(=O)O)cc2OC)c(NS(=O)(=O)c2ccc(Cl)cc2Cl)c1` [Example 12, (4-[2-(2,4-Dichloro-benzenesulfonyl-amino)-4-ethylcarbamoyl-phenoxy]-3-methoxy-phenyl)-acetic acid] yielded an IC50 of less than 1000 nM.
`CCNC(=O)c1ccc(S(=O)(=O)c2ccc(CC(=O)O)cc2)c(NS(=O)(=O)c2ccc(Cl)cc2Cl)c1` [Example 17, {4-[2-(2,4-dichloro-benzenesulfonyl-amino)-4-ethylcarbamoyl-benzenesulfonyl]-phenyl}-acetic acid] gave an IC50 of 1000 to 15000 nM.
`CCNC(=O)c1cc(NS(=O)(=O)c2ccc(Cl)cc2Cl)c2oc3c(Cl)cc(CC(=O)O)cc3c2c1` [Example 18, [4-chloro-6-(2,4-dichloro-benzenesulfonyl-amino)-8-ethylcarbamoyl-dibenzofuran-2-yl]-acetic acid] showed an IC50 of less than 1000 nM.
Compound `CCOC(=O)Cc1cccc(Oc2ccccc2[N+](=O)[O-])c1` [Example 31, Ethyl 3-(2-nitrophenoxy)phenylacetate] has an IC50 greater than 15000 nM.
`O=C(O)Cc1cccc(Oc2ccc(C(=O)c3ccccc3)cc2NS(=O)(=O)c2ccccc2)c1` [Example 33, 3-(4-Benzoyl-2-benzenesulfonylamino-phenoxy)phenylacetic acid] showed an IC50 of 1000 to 15000 nM.
For `O=C(O)Cc1cccc(Oc2ccc(Cl)cc2NS(=O)(=O)c2ccccc2)c1` [Example 35, 3-(4-Chloro-2-benzenesulfonylamino-phenoxy)phenylacetic acid], the IC50 was less than 1000 nM.
With `COc1ccc(Oc2cccc(CC(=O)O)c2)c(NS(=O)(=O)c2ccccc2)c1` [Example 36, 3-(4-Methoxy-2-benzenesulfonylamino-phenoxy)phenylacetic acid] the IC50 was 1000 to 15000 nM.
In the case of `O=C(O)Cc1cn(Cc2ccccc2NCc2ccccc2)c2ccccc12` [Example 63], the IC50 is reported as 1000 to 15000 nM.
Work on `Cc1ccc(S(=O)(=O)Nc2ccccc2Cc2ccc(CC(=O)O)cc2)cc1` [Example 64] yielded an IC50 of less than 1000 nM.
`CCNC(=O)c1ccc(C(=O)c2cc(CC(=O)O)ccc2OC)c(NS(=O)(=O)c2ccc(C)cc2)c1` [Example 70] was tested, and the IC50 was less than 1000 nM.
`CCNC(=O)c1ccc(Oc2ccc(Cc3nnn[nH]3)cc2OC)c(NS(=O)(=O)c2ccc(Cl)cc2Cl)c1` [Example 75, 3-(2,4-Dichloro-benzenesulfonylamino)-N-ethyl-4-[2-methoxy-4-(1H-tetrazol-5-ylmethyl)-phenoxy]-benzamide] was tested, and the IC50 was less than 1000 nM.
In the case of `CCNC(=O)c1ccc(Oc2cc(CC(=O)O)ccc2OC)c(NC(=O)OC(C)C)c1` [Example 77, [3-(4-Ethylcarbamoyl-2-isopropoxycarbonylamino-phenoxy)-4-methoxy-phenyl]-acetic acid], the IC50 is reported as 1000 to 15000 nM.
